In paper PMC5889666 (Proceedings of the National Academy of Sciences of the …, 2018):

Tests used:
PlsB = target: T1, PlsB (Escherichia coli, UniProt P0A7A7); assay: in vitro lyso-phosphatidic acid synthesis, product by LC-MS; format: biochemical; conditions: co-substrate acyl-CoA made from oleic acid and CoA by FadD
T1 sequence (P0A7A7 2-807): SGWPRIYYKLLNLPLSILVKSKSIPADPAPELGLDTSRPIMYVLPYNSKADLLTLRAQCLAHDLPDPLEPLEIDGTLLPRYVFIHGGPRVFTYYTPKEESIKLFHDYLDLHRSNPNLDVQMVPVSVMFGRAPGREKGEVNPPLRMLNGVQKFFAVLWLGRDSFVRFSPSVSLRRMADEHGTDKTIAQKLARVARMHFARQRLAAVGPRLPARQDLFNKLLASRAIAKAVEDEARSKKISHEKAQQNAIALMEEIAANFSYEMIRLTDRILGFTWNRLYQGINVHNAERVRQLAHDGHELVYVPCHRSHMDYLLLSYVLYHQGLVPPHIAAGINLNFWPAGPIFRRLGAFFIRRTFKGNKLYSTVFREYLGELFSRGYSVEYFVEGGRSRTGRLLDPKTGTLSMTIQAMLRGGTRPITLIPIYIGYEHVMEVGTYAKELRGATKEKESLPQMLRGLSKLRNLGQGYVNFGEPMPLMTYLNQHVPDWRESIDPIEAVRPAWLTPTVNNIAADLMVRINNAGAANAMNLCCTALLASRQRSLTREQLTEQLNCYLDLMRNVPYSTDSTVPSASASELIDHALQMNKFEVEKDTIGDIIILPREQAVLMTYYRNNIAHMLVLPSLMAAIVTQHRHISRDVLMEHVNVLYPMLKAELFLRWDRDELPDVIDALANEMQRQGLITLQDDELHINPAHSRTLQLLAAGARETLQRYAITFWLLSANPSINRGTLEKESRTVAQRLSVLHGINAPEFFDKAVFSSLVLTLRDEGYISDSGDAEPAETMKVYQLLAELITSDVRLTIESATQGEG

FadD = target: T2, FadD (Escherichia coli, UniProt P69451); assay: in vitro acyl-CoA synthesis, product by LC-MS; format: biochemical
T2 sequence (P69451 1-561): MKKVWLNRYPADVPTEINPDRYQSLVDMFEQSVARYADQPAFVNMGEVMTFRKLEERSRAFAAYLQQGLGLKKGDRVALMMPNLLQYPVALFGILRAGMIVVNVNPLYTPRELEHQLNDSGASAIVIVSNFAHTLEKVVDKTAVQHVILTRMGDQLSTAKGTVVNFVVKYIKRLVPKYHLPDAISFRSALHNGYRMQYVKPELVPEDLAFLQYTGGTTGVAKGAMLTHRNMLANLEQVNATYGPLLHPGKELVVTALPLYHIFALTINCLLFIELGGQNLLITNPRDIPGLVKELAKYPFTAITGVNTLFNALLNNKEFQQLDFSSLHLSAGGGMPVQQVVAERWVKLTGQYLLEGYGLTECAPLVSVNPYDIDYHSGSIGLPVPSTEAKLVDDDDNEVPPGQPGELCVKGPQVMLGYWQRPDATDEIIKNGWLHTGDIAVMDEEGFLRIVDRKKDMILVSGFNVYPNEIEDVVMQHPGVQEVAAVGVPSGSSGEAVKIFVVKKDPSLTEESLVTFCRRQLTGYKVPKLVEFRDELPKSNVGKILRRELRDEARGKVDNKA

purified protein [1] = substrate: O=P(O)(O)OC[C@H](O)CO; assay: purified protein; conditions: co-substrate GGPP
purified protein [2] = substrate: O=P(O)(O)OC[C@@H](O)CO; assay: purified protein; conditions: co-substrate GGPP

O=P(O)(O)OC[C@H](O)CO [G3P]
in vitro lyso-phosphatidic acid synthesis, product by LC-MS (PlsB): LPA synthesis was observed only in the presence of G3P

CCCCCCCC/C=C\CCCCCCCC(=O)O [oleic acid]
in vitro acyl-CoA synthesis, product by LC-MS (FadD; co-substrate CoA): in vitro condensation of oleic acid and CoA to yield acyl-CoA

CC(C)(COP(=O)(O)OP(=O)(O)OC[C@H]1O[C@@H](n2cnc3c(N)ncnc32)[C@H](O)[C@@H]1OP(=O)(O)O)[C@@H](O)C(=O)NCCC(=O)NCCS [CoA]
in vitro acyl-CoA synthesis, product by LC-MS (FadD; co-substrate oleic acid): in vitro condensation of oleic acid and CoA to yield acyl-CoA

B1: GGGPS (Methanococcus maripaludis S2) (protein)
chain: MQIKIGEIESKLNKIIEEEGAAYFVLIDPDEKNYREIANHVKDYADAIIIGGSIGIINLDEVTKDIKEITGLPIILFPGNVDGVTKEADAVFFMSLMNSKNTYWNMTAPTLGALTIKKYGLETLPMAYLGIEPISKTAVGFVGEVNEIPQKKPEIAGLYSLSASYFGMRWAYLEAGSGAEYPVSNEMVGISKKLSGINIIVGGGIRTPEVAYEKVMSGADVIVTGTLTEKDPQAVVEMKKAIKKAGLDKLKMLSKK
Km (purified protein [1]): 46.7 ± 6 µM | Km (purified protein [2]): 5.8 ± 1.6 µM
